For series [1], the system named is collagen type 1 (Col1a2) gene expression in rat tail tendon fascicles. Nature of the series: Ex vivo assay, tendon fascicles, collagen type 1 mRNA (qPCR). Particulars: 96 h. The series is classed as cell-based, Sprague Dawley rat. A general note: In qPCR the cycle at which signal appears reflects the starting amount.
The subject of series [2] is Tenomodulin (Tnmd) gene expression in rat tail tendon fascicles. Nature of the series: Ex vivo assay, tendon fascicles, Tenomodulin mRNA (qPCR). The series is classed as cell-based, Sprague Dawley rat. Particulars: 96 h.
Series [3] concerns Scleraxis (Scx) gene expression in rat tail tendon fascicles. Description: Ex vivo assay, tendon fascicles, Scleraxis mRNA (qPCR). The series is classed as cell-based, Sprague Dawley rat. Particulars: 96 h.
Series [4] deals with mouse immortalized TT-D6 Scx-luciferase (ScxL) cell line; transcriptional activation of Scleraxis (Scx) gene. Nature of the series: SCX-LUC in vitro assay (scleraxis promoter luciferase reporter). Format: cell-based. Particulars: Mus musculus, 96 h.
The nature of series [5]: Cumulative release from PLGA microparticle formulations in PBS buffer. The series is classed as physicochemical. Particulars: incorporated into PLGA microparticles, PBS buffer pH 7.4, 1% Tween 20. The source says:
In the current invention, the microparticles formulation contains a copolymer of DL-lactide and glycolide in a 50:50 molar ratio with an ester end group plus Test Compound A is used. The total amount of Test Compound A incorporated into the microparticles ranges from 2% to 10% (w/w). The microparticles are formulated to mean mass range in size from 5 to 25 microns. The population of microparticles is formulated to be delivered through a 22 gauges or higher needles (see Table A below). Organic solvent was used for preparation of microparticles were dichloromethane (DCM) and ethyl acetate (EA) either alone or in combination with methanol (MeOH) and/or dimethyl sulfoxide (DMSO) e.g., ratio of MeOH/DMSO from 5-15% in DCM or EA as primary solvent. Additional excipients may be added such as, but not limited to, carboxymethylcellulose sodium, mannitol and ploxamer to achieve isotonicity and promote syringeability.
(§1) Test Compound A incorporated into the microparticles provides an initial release (burst) of about 5-10% of drug over a period of 1 to 2 days, followed by a steady state release of drug over a period of 21 days (FIG. 1). In-vivo the microparticles could extend the release of Test Compound A over 4 weeks in a rat model.

A short description of series [6]: In-vivo release from microparticles in a rat model.
Description: as §1

In series [7] the target is recombinant human Jak2 (aa808-1132) (Homo sapiens (Human), UniProt O60674). Nature of the series: Kinase panel, substrate peptide phosphorylation (Caliper mobility shift), JAK2. The series is classed as biochemical.
Series [8] deals with recombinant human Jak3 (aa811-1124) (Homo sapiens (Human), UniProt P52333). Description: Kinase panel, substrate peptide phosphorylation (Caliper mobility shift), JAK3. Format: biochemical.
Series [9] addresses recombinant human Tyk2 (aa888-1187) (Homo sapiens (Human), UniProt P29597). Nature of the series: Kinase panel, substrate peptide phosphorylation (Caliper mobility shift), TYK2. The series is classed as biochemical. Particulars: 3 nM kinase, 45 uM ATP, 60 min at 30° C.
In series [10] the target is recombinant human Jak1 (aa 866-1154) (Homo sapiens (Human), UniProt P23458). Nature of the series: Kinase panel, substrate peptide phosphorylation (Caliper mobility shift), JAK1. The series is classed as biochemical. Particulars: 3 nM kinase, 45 uM ATP, 60 min at 30° C.
[11] abbreviates: Examples table, rat tail tendon fascicles, four days, delta-delta Ct, read-out: Ex vivo Col1a2 (EC50 μM).
The mark [12] stands for this setting: Examples table, rat tail tendon fascicles, four days, delta-delta Ct, read-out: Ex vivo Tnmd (EC50 μM).
Setting [13] is: Examples table, rat tail tendon fascicles, four days, delta-delta Ct, read-out: Ex vivo Scx (EC50 μM).
The mark [14] stands for this setting: Examples table, TT-D6 Scx-luciferase cells, 1 ng/ml TGFβ1, four days, read-out: Scx-Luc (EC50 μM).
Where [15] appears, read: Rattus norvegicus, read-out: Ex vivo Col1a2 (EC50 uM).
[16] abbreviates: Rattus norvegicus, read-out: Ex vivo Tnmd (EC50 uM).
[17] abbreviates: Rattus norvegicus, read-out: Ex vivo SCX (EC50 uM).

Like-named read-outs stand apart in the source and are kept apart here.

Sequence of recombinant human Jak2 (aa808-1132) (O60674 808-1132): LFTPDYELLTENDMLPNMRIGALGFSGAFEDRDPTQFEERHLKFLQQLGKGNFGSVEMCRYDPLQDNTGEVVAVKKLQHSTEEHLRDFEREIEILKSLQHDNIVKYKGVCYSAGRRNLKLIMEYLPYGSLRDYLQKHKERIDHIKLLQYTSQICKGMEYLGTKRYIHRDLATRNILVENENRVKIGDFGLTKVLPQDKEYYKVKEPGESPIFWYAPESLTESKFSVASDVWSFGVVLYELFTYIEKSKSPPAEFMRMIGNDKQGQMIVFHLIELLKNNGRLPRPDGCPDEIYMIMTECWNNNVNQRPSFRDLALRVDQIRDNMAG
Sequence of recombinant human Jak1 (aa 866-1154) (P23458 866-1154): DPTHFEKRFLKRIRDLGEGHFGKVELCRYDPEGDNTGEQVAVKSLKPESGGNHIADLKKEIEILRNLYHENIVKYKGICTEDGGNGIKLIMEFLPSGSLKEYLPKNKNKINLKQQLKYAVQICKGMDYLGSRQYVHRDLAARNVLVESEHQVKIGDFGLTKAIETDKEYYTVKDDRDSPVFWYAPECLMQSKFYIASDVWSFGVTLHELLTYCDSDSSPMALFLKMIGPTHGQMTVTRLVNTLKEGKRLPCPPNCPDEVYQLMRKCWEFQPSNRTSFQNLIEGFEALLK
Sequence of recombinant human Jak3 (aa811-1124) (P52333 811-1124 limits assumed): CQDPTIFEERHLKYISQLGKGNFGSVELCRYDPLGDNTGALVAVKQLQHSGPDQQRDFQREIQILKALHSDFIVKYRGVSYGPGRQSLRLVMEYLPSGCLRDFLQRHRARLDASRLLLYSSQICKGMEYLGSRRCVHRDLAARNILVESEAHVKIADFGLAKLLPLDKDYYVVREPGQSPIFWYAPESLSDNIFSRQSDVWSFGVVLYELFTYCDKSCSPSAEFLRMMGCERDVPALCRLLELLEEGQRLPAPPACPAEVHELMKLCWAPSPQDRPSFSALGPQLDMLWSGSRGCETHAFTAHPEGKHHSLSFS
Sequence of recombinant human Tyk2 (aa888-1187) (P29597 888-1187): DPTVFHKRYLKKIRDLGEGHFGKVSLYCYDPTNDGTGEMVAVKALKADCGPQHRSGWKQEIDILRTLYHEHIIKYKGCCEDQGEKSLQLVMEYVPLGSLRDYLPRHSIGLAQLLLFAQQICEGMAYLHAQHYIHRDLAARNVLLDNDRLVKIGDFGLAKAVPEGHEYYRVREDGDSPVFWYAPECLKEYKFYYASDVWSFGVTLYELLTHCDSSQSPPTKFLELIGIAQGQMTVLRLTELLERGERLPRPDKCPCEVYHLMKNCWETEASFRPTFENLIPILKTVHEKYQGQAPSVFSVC

For `Cc1cc(S(=O)(=O)N2CC(O)(C(F)(F)F)C2)ccc1-c1ccc2[nH]nc(N)c2n1` [Example 66, 1-((4-(3-amino-1H-pyrazolo[4,3-b]pyridin-5-yl)-3-methylphenyl)sulfonyl)-3-(trifluoromethyl)azetidin-3-ol], the EC50 in series [1] (setting [11]) is 0.921 µM; in [2] (setting [12]), 0.719 µM; in [3] (setting [13]), 0.89 µM; in series [4] (setting [14]) it was 0.794 µM.

Consider `Nc1n[nH]c2ccc(-c3ccc(NS(=O)(=O)c4ccc5c(c4)OCO5)cc3Cl)nc12` [Example 11, N-(4-(3-amino-1H-pyrazolo[4,3-b]pyridin-5-yl)-3-chlorophenyl)benzo[d][1,3]dioxole-5-sulfonamide], for which the EC50 in [1] (setting [11]) amounted to 2.46 µM; in series [2] (setting [12]), 0.841 µM; in series [3] (setting [13]) it was 3.05 µM; in [4] (setting [14]) it was 0.801 µM.

For the compound `Cc1cc(S(=O)(=O)N[C@H]2C[C@](O)(C(F)(F)F)C2)ccc1-c1ccc2[nH]nc(N)c2n1` [Example 2, 4-(3-amino-1H-pyrazolo[4,3-b]pyridin-5-yl)-N-((1s,3s)-3-hydroxy-3-(trifluoromethyl)cyclobutyl)-3-methylbenzenesulfonamide], in [5] (after initial burst), the “period of steady state release of drug” value came to 21 days. Besides, the “initial release (burst) of drug” value in [5] (over a period of 1 to 2 days) was 5-10%. Also, in series [4] (setting [14]), the EC50 came out at 0.376 µM. In series [6], this compound displayed an extended release in-vivo of 4 weeks.

On to `Nc1n[nH]c2ccc(-c3ccc(S(=O)(=O)NC4CCCCC4O)cc3Cl)nc12` (centres unmarked) [Example 12, 4-(3-amino-1H-pyrazolo[4,3-b]pyridin-5-yl)-3-chloro-N-(2-hydroxycyclohexyl)benzenesulfonamide], for which the EC50 was 4.62 µM in series [1] (setting [11]), 5.39 µM in series [2] (setting [12]), 5.79 µM in series [3] (setting [13]) and 0.765 µM in [4] (setting [14]).

On to `Cc1cc(S(=O)(=O)N2CC3CCCC3C2)ccc1-c1ccc2[nH]nc(N)c2n1` (centres unmarked) [Example 21, 5-(4-((hexahydrocyclopenta[c]pyrrol-2(1H)-yl)sulfonyl)-2-methylphenyl)-1H-pyrazolo[4,3-b]pyridin-3-amine], for which the EC50 in series [1] (setting [11]) was 3.71 µM; in series [2] (setting [12]), 3.51 µM; in series [3] (setting [13]), 4.93 µM; in series [4] (setting [14]), 0.598 µM.

For the compound `Cc1cc(S(=O)(=O)N(C)[C@H]2C[C@](O)(C(F)(F)F)C2)ccc1-c1ccc2[nH]nc(N)c2n1` [Example 9, 4-(3-amino-1H-pyrazolo[4,3-b]pyridin-5-yl)-N-((1s,3s)-3-hydroxy-3-(trifluoromethyl)cyclobutyl)-N,3-dimethylbenzenesulfonamide], the EC50 in series [1] (setting [11]) is 0.577 µM; in series [2] (setting [12]), 2.14 µM; in series [3] (setting [13]), 2.27 µM; in series [4] (setting [14]) it was 0.46 µM.

Turning to `Nc1n[nH]c2ccc(-c3ccc(NS(=O)(=O)Cc4ccccc4)cc3Cl)nc12` [Example 59, N-(4-(3-amino-1H-pyrazolo[4,3-b]pyridin-5-yl)-3-chlorophenyl)-1-phenylmethanesulfonamide], the EC50 in [1] (setting [11]) is 5.71 µM; in series [2] (setting [12]), 4.61 µM; in series [3] (setting [13]), over 10 µM; in series [4] (setting [14]) it was 4.32 µM.

As to `Nc1n[nH]c2ccc(-c3ccc(NS(=O)(=O)c4ccc5ccccc5c4)cc3Cl)nc12` [Example 82, N-(4-(3-amino-1H-pyrazolo[4,3-b]pyridin-5-yl)-3-chlorophenyl)naphthalene-2-sulfonamide], the EC50 in series [1] (setting [11]) is 7.27 µM; in series [2] (setting [12]), 4.87 µM; in series [3] (setting [13]) it was over 10 µM; in series [4] (setting [14]), 2.61 µM.

Turning to `O=C(Nc1nc2cccc(-c3ccc(CN4CCS(=O)(=O)CC4)cc3)n2n1)C1CC1` [reference compound], the EC50 in [1] (setting [15]) was 5.01 µM; in series [2] (setting [16]), 6.93 µM; in series [3] (setting [17]), 5.34 µM; in series [4] (read-out: Scx-Luc (EC50 uM)) it was 4.32 µM.

In the case of `N#C[C@H]1CC(=O)CC[C@@H]1n1cc(C(N)=O)c(Nc2ccc(C(F)(F)F)cc2)n1` [reference compound], the EC50 in series [1] (Table 1, rat tail tendon fascicles, four days, delta-delta Ct, read-out: Ex vivo Col1a2 (EC50 uM)) amounted to 0.94 µM; in [2] (Table 1, rat tail tendon fascicles, four days, delta-delta Ct, read-out: Ex vivo Tnmd (EC50 uM)), 4.83 µM; in series [3] (Table 1, rat tail tendon fascicles, four days, delta-delta Ct, read-out: Ex vivo SCX (EC50 uM)) it was 0.85 µM; in series [4] (Table 1, TT-D6 Scx-luciferase cells, 1 ng/ml TGFβ1, four days, read-out: Scx-Luc (EC50 uM)) it was 1.24 µM.

In the case of `N#C[C@H]1C[C@@H](N2CCC2)CC[C@@H]1n1cc(C(N)=O)c(Nc2ccc(C(F)(F)F)cc2)n1` [reference compound], the EC50 turned out to be 0.42 µM in [1] (setting [15]), 0.08 µM in series [2] (setting [16]), 1.16 µM in series [3] (setting [17]) and 2.05 µM in series [4] (read-out: Scx-Luc (EC50 uM)). For the same compound, the IC50 turned out to be 2.7 µM in [7], 10 µM in [8], 1.8 µM in [9] and 0.04 µM in series [10].

For `N#C[C@@H]1C[C@H](N2CCC2)CC[C@H]1n1cc(C(N)=O)c(Nc2ccc(C(F)(F)F)cc2)n1`, the EC50 was found to be 3.65 µM in [1] (setting [15]), 5.76 µM in series [2] (setting [16]) and 5.63 µM in [3] (setting [17]). In addition, the IC50 in series [7] turned out to be 0.24 µM; in [8] it was 10 µM; in series [9] it was 0.12 µM; in series [10], 0.002 µM.

Regarding `CC(=O)N1CCOc2ccc(S(=O)(=O)Nc3ccc(-c4ccc5[nH]nc(N)c5n4)c(Cl)c3)cc21` [Example 86, 4-acetyl-N-(4-(3-amino-1H-pyrazolo[4,3-b]pyridin-5-yl)-3-chlorophenyl)-3,4-dihydro-2H-benzo[b][1,4]oxazine-6-sulfonamide], the EC50 in series [1] (setting [11]) was over 10 µM; in series [2] (setting [12]), 4.86 µM; in [3] (setting [13]), over 10 µM; in series [4] (setting [14]), 5.39 µM.

Turning to `N#C[C@H]1C[C@H](O)CC[C@@H]1n1cc(C(N)=O)c(Nc2ccc(C(F)(F)F)cc2)n1` [reference compound], the EC50 in series [1] (setting [15]) worked out at 3.97 µM; in [2] (setting [16]) it was 3.82 µM; in series [3] (setting [17]), 5.65 µM; in [4] (read-out: Scx-Luc (EC50 uM)), 2.06 µM. Also, the IC50 in series [7] was determined as 0.15 µM; in series [8] it was 10 µM; in series [9], 0.11 µM; in series [10], 0.004 µM.

Turning to `CC(O)(C1CN(S(=O)(=O)c2ccc(-c3ccc4[nH]nc(N)c4n3)c(Cl)c2)CCN1)C(F)(F)F` (centres unmarked) [Example 89, 2-(4-((4-(3-amino-1H-pyrazolo[4,3-b]pyridin-5-yl)-3-chlorophenyl)sulfonyl)piperazin-2-yl)-1,1,1-trifluoropropan-2-ol], the EC50 in series [1] (setting [11]) is 7.27 µM; in series [2] (setting [12]) it was 5.01 µM; in series [3] (setting [13]), 4.44 µM; in series [4] (setting [14]) it was 2.19 µM.

As for `Nc1n[nH]c2ccc(-c3ccc(S(=O)(=O)NC4CCS(=O)(=O)C4)cc3Cl)nc12` (centres unmarked) [Example 31, 4-(3-amino-1H-pyrazolo[4,3-b]pyridin-5-yl)-3-chloro-N-(1,1-dioxidotetrahydrothiophen-3-yl)benzenesulfonamide], the EC50 in series [1] (setting [11]) stood at 2.63 µM; in series [2] (setting [12]), 2.76 µM; in [3] (setting [13]) it was 2.31 µM; in series [4] (setting [14]) it was 0.411 µM.

Regarding `Nc1n[nH]c2ccc(-c3ccc(S(=O)(=O)N[C@H]4C[C@](O)(C(F)(F)F)C4)cc3Cl)nc12` [Example 1], the EC50 came to 1.59 µM in series [1] (setting [11]), 0.804 µM in series [2] (setting [12]), 2.11 µM in series [3] (setting [13]) and 0.183 µM in series [4] (setting [14]).

Regarding `Nc1n[nH]c2ccc(-c3ccc(NS(=O)(=O)c4ccc(Cl)cc4)cc3Cl)nc12` [Example 3, N-(4-(3-amino-1H-pyrazolo[4,3-b]pyridin-5-yl)-3-chlorophenyl)-4-chlorobenzenesulfonamide], the EC50 in series [1] (setting [11]) was 3.08 µM; in series [2] (setting [12]), 1.15 µM; in series [3] (setting [13]) it was over 10 µM; in [4] (setting [14]), 0.801 µM.

The term EC50 denotes the midpoint of the concentration-response curve. For orientation: IC50 means the concentration that gives 50% inhibition.

Source of the values: patent publication US10766894B2, “Aza-indazole compounds for use in tendon and/or ligament injuries” (NOVARTIS AG, priority 2016, dated 2020).
